{
  "source": "patent US11285130B2",
  "about": "“Treatment of mitochondrial diseases” (Khondrion IP B.V., priority 2017, dated 2022)",
  "key": {"[1]": {"test": "MAD study pharmacokinetic analysis", "format": "in vivo, human", "conditions": "for AUC / Cmax / Tmax: male, human, plasma, oral; for Cmax: read-out: Cmax (Geomean); for Tmax: read-out: tmax* (median)", "protocol": "Dose escalation to the next dose level was done after evaluation of the safety and the first 24-hour pharmacokinetic results of the previous dose. […] Anticipated exposures at this starting dose were just below the Minimum Anticipated Biological Effect Level (MABEL). Placebo (an in taste and appearance matching oral liquid) was also administered orally on one occasion in the single-ascending dose part and b.i.d. for 7 Days in the MAD part. […] All samples were stored at <-70° C. until analysis. […] For mean value calculations, all values below the limit of quantification (LOQ) were set to zero. […] The non-compartmental pharmacokinetic analysis was performed using Phoenix, Version 6.3 (Pharsight Corporation, Mountain View, Calif., USA). […] The PK parameters were calculated on the basis of the actual blood sampling time points relative to dosing. Selected pharmacokinetic parameters (Cmax, tmax, t1/2, AUClast and AUC0-int) following single-dose administration and selected pharmacokinetic parameters Cmax, tmax, [NT], the accumulation factor (Racc) and time to reach steady state) following multiple dose administration were determined. In urine, the percentage of dose excreted in urine was determined for the single- and multiple-dose administration."}, "[2]": {"test": "ECG post-hoc analysis, MAD study", "format": "in vivo, human", "set-up": "QTcF: largest median baseline increase / QTcF: largest individual increase: unit not given here", "protocol": "The changes from baseline (pre-dose assessment on Day 1) for body weight, physical examinations, vital signs, ECG-variables and clinical laboratory variables were determined for each time point. Treatment-emergent laboratory and ECG abnormalities as well as adverse events were monitored throughout the study, up to 28 Days after the last study drug intake.\nThe goal of this post-hoc optimization study was to repeat the ECG assessment with an highly automated computer-assisted approach where in addition to the re-evaluation of standard intervals (PR, QRS and QT intervals), a set of parameters describing repolarization morphology were considered. The morphology indices were the TpTe interval (interval from the T wave apex to the end of the T wave), the TpTe/QT index (the ratio between the TpTe interval and the QT interval), Tamp (the amplitude in microvolt units of the T wave) and TSym (an index of repolarization morphology based on the symmetry of the T wave).\nECGs were digitally recorded using a Schiller AT104 ECG machine (500 Hz, 1 μV). Cardiac interval measurements were performed on the Global Superimposed Median Beat (GSMB), a methodology that allows measurements that consider each of the 12 individual median beats. This measurement methodology ensures that the PR, QRS, and QT interval are measured from the earliest onset in any lead to the latest deflection in any lead. Cardiologist overview of the computer-based measurements is based on the superimposed (overlapped) display of the individual median beats, to assure measurements are performed at the earliest onset of any viable lead to the latest offset of any viable lead.\nThe RR interval used for heart-rate correction of the QT interval (QTcB) was based on all the beats in the ten second recording.\nOther cardiac parameters were computed from the 12-lead vector magnitude VM (e.g. the square root of the sum of squares at each digital sample) computed from the individual median beats. On the VM lead, the apex of the T wave is placed and used to compute the TpTe interval (using the end of the T wave from the GSMB) and the T wave amplitude (height in microvolt of the VM T peak from the isoelectric line). […] T wave symmetry index was computed using a proprietary approach based on Gaussian Mesa function modeling (GMF) of the repolarization waves (Badilini F et al. J Electrocardiol 2008, 41:588-594). Briefly, the ascending and descending phases of the VM T wave are modeled by two independent half-Gaussian curves (see FIG. 3). The standard deviations of these functions (σ1 and σ2) and indicators of the ascending/descending speed and their ratio is an index of symmetry (TSym=σ1/σ2; TSym=1 for a perfectly symmetric T wave, TSym<1 for slow-ascending/fast-descending T waves, T>1 for fast-ascending/slow-decending T waves).\nFor the pre-dose (baseline) ECGs, all parameters per time point were calculated as the averages of the triplicate ECGs. Computation of QTcB and QTcF was performed using the RR interval averaged from the total ECG acquisition duration (10 seconds) and in the case of the triplicate ECGs is based on the average QT and average HR of the replicate ECGs.\nThe over-reading cardiologist provided a clinical interpretation for each ECG at each time point. Each ECG was classified as Normal, Abnormal Clinically Insignificant (ACI), or Abnormal Clinically Significant (ACS). Results of this post-hoc analysis were used for an exposure-response evaluation for the changes in the electrophysiological parameters as a function of the concentration of KH176."}, "[3]": {"conditions": "100 mg, MAD, KH176 100 mg b.i.d, Day 1"}, "[4]": {"conditions": "100 mg, MAD, KH176 100 mg b.i.d, Day 7"}, "[5]": {"conditions": "200 mg, MAD, KH176 200 mg b.i.d, Day 1"}, "[6]": {"conditions": "200 mg, MAD, KH176 200 mg b.i.d, Day 7"}, "[7]": {"conditions": "400 mg, MAD, KH176 400 mg b.i.d, Day 1"}, "[8]": {"conditions": "400 mg, MAD, KH176 400 mg b.i.d, Day 7"}},
  "note": "Where two headings read alike, the source gives them in different places.",
  "data": [
    {"smiles": "Cc1c(C)c2c(c(C)c1O)CC[C@@](C)(C(=O)N[C@@H]1CCCNC1)O2.Cl", "note": "[KH176, (S)-6-hydroxy-2,5,7,8-tetramethyl-N-((R)-piperidin-3-yl)chroman-2-carboxamide hydrochloride]", "values": [
      {"measurement": "Racc (accumulation ratio, Geomean)", "setting": "[1]; MAD, KH176 100 mg b.i.d, Day 7", "result": 2.52},
      {"measurement": "Racc (accumulation ratio, Geomean)", "setting": "[1]; MAD, KH176 200 mg b.i.d, Day 7", "result": 2.65},
      {"measurement": "Racc (accumulation ratio, Geomean)", "setting": "[1]; MAD, KH176 400 mg b.i.d, Day 7", "result": 2.17},
      {"measurement": "steady concentrations reached by (first trough measurement)", "setting": "[1]; MAD, mean trough concentration-time curves", "result": "≤ 4", "unit": "days"},
      {"measurement": "AUC", "setting": "[1]; 100 mg, MAD, KH176 100 mg b.i.d, Day 1, read-out: AUCtau (Geomean)", "result": 1090, "unit": "ng·h/mL"},
      {"measurement": "Cmax", "setting": "[1]; [3]", "result": 184, "unit": "ng/mL"},
      {"measurement": "Tmax", "setting": "[1]; [3]", "result": 1.25, "unit": "h"},
      {"measurement": "AUC", "setting": "[1]; 100 mg, MAD, KH176 100 mg b.i.d, Day 7, read-out: AUCtau (Geomean)", "result": 2760, "unit": "ng·h/mL"},
      {"measurement": "Cmax", "setting": "[1]; [4]", "result": 353, "unit": "ng/mL"},
      {"measurement": "Tmax", "setting": "[1]; [4]", "result": 1, "unit": "h"},
      {"measurement": "AUC", "setting": "[1]; 200 mg, MAD, KH176 200 mg b.i.d, Day 1, read-out: AUCtau (Geomean)", "result": 2250, "unit": "ng·h/mL"},
      {"measurement": "Cmax", "setting": "[1]; [5]", "result": 313, "unit": "ng/mL"},
      {"measurement": "Tmax", "setting": "[1]; [5]", "result": 1.75, "unit": "h"},
      {"measurement": "AUC", "setting": "[1]; 200 mg, MAD, KH176 200 mg b.i.d, Day 7, read-out: AUCtau (Geomean)", "result": 5960, "unit": "ng·h/mL"},
      {"measurement": "Cmax", "setting": "[1]; [6]", "result": 748, "unit": "ng/mL"},
      {"measurement": "Tmax", "setting": "[1]; [6]", "result": 2, "unit": "h"},
      {"measurement": "AUC", "setting": "[1]; 400 mg, MAD, KH176 400 mg b.i.d, Day 1, read-out: AUCtau (Geomean)", "result": 6890, "unit": "ng·h/mL"},
      {"measurement": "Cmax", "setting": "[1]; [7]", "result": 1330, "unit": "ng/mL"},
      {"measurement": "Tmax", "setting": "[1]; [7]", "result": 1, "unit": "h"},
      {"measurement": "AUC", "setting": "[1]; 400 mg, MAD, KH176 400 mg b.i.d, Day 7, read-out: AUCtau (Geomean)", "result": 14900, "unit": "ng·h/mL"},
      {"measurement": "Cmax", "setting": "[1]; [8]", "result": 2100, "unit": "ng/mL"},
      {"measurement": "Tmax", "setting": "[1]; [8]", "result": 1.5, "unit": "h"},
      {"measurement": "AUC", "setting": "[1]; steady state, BID, read-out: AUCtau (one dosing interval, 12 hours), range", "result": "2130 to 3680", "unit": "ng·h/mL"},
      {"measurement": "average concentrations, range", "setting": "[1]; steady state, 100 mg BID", "result": "177.5 to 306.6", "unit": "ng/mL"},
      {"measurement": "maximum concentration, range", "setting": "[1]; steady state, 100 mg BID, healthy subjects", "result": "303 to 458", "unit": "ng/mL"},
      {"measurement": "effect on QTcF", "setting": "[2]; MAD 100 mg b.i.d.", "result": "no effect"},
      {"measurement": "PR interval: largest median baseline increase", "setting": "[2]; MAD 200 mg", "result": 12, "unit": "ms"},
      {"measurement": "QTcF: largest individual increase", "setting": "[2]; MAD 200 mg", "result": 28.3},
      {"measurement": "QTcF: largest median baseline increase", "setting": "[2]; MAD 200 mg", "result": 13.3},
      {"measurement": "T-wave symmetry index: largest individual increase", "setting": "[2]; MAD 200 mg", "result": 0.6},
      {"measurement": "T-wave symmetry index: largest median baseline increase", "setting": "[2]; MAD 200 mg", "result": 0.45},
      {"measurement": "TpTe interval: largest individual increase", "setting": "[2]; MAD 200 mg", "result": 46, "unit": "ms"},
      {"measurement": "TpTe interval: largest median baseline increase", "setting": "[2]; MAD 200 mg", "result": 24, "unit": "ms"},
      {"measurement": "QTcF, median maximum change from baseline", "setting": "[2]; MAD 200 mg b.i.d., Day 5", "result": 13, "unit": "ms"},
      {"measurement": "PR interval: largest median baseline increase", "setting": "[2]; MAD 400 mg", "result": 19, "unit": "ms"},
      {"measurement": "QRS interval: largest individual increase", "setting": "[2]; MAD 400 mg", "result": 15.3, "unit": "ms"},
      {"measurement": "QRS interval: largest median baseline increase", "setting": "[2]; MAD 400 mg", "result": 9.7, "unit": "ms"},
      {"measurement": "QTcF: largest individual increase", "setting": "[2]; MAD 400 mg", "result": 43.7},
      {"measurement": "QTcF: largest median baseline increase", "setting": "[2]; MAD 400 mg", "result": 29.2},
      {"measurement": "T-wave symmetry index: largest individual increase", "setting": "[2]; MAD 400 mg", "result": 0.99},
      {"measurement": "T-wave symmetry index: largest median baseline increase", "setting": "[2]; MAD 400 mg", "result": 0.63},
      {"measurement": "TpTe interval: largest individual increase", "setting": "[2]; MAD 400 mg", "result": 62.7, "unit": "ms"},
      {"measurement": "TpTe interval: largest median baseline increase", "setting": "[2]; MAD 400 mg", "result": 42.3, "unit": "ms"},
      {"measurement": "QTcF, median maximum change from baseline at trough", "setting": "[2]; MAD 400 mg b.i.d., Day 6", "result": 29, "unit": "ms"}
    ]}
  ]
}
